Data as given in PubChem BioAssay (NCI).
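The compound was tested at five concentrations on cells cultured in 96-well plates, with a 48-hour exposure period. GI50: concentration for 50% inhibition of growth. TGI denotes the concentration required for complete inhibition of growth.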

How the values were obtained:
Test in all cases: growth of human tumour cells (NCI), 48 h
CCRF-CEM leukemia = tested on: CCRF-CEM leukemia
COLO 205 colon = tested on: COLO 205 colon
HCC-2998 colon = tested on: HCC-2998 colon
HCT-116 colon = tested on: HCT-116 colon
HOP-92 NSCLC = tested on: HOP-92 NSCLC
K-562 leukemia = tested on: K-562 leukemia
MDA-MB-231 breast = tested on: MDA-MB-231 breast
RXF 393 renal = tested on: RXF 393 renal
SK-MEL-5 melanoma = tested on: SK-MEL-5 melanoma
T-47D breast = tested on: T-47D breast

Row | Structure (SMILES) | GI50 (CCRF-CEM leukemia) [µM] | TGI (CCRF-CEM leukemia) [µM] | GI50 (COLO 205 colon) [µM] | TGI (COLO 205 colon) [µM] | GI50 (HCC-2998 colon) [µM] | TGI (HCC-2998 colon) [µM] | GI50 (HCT-116 colon) [µM] | TGI (HCT-116 colon) [µM] | GI50 (HOP-92 NSCLC) [µM] | TGI (HOP-92 NSCLC) [µM] | GI50 (K-562 leukemia) [µM] | TGI (K-562 leukemia) [µM] | GI50 (MDA-MB-231 breast) [µM] | TGI (MDA-MB-231 breast) [µM] | GI50 (RXF 393 renal) [µM] | TGI (RXF 393 renal) [µM] | GI50 (SK-MEL-5 melanoma) [µM] | TGI (SK-MEL-5 melanoma) [µM] | GI50 (T-47D breast) [µM] | TGI (T-47D breast) [µM]
1 | NC(=S)N/N=C\c1nccc2c(C(F)(F)F)cccc12 | 0.278 | 12.1 | 0.237 | 10.8 | 0.411 | 15.4 | 0.298 | 4.26 | 0.226 | 1.35 | 0.44 | 21.2 | 0.281 | 17.6 | 0.251 | 2.53 | 0.183 | 0.921 | 0.335 | 25.7
2 | CC(=C(c1ccc(OCCN2CCCCC2)cc1)c1ccc(OCCN2CCCCC2)cc1)c1ccc(Cl)cc1 | 0.493 | 1.56 | 0.46 | 0.921 | 0.396 | 0.755 | 0.39 | 0.743 | 0.343 | 0.711 | 0.0775 | 0.362 | 0.425 | 0.806 | 0.375 | 0.743 | 0.443 | 0.793 | 0.43 | 1.04
3 | O=C1c2ccccc2C(=O)c2c(/C=C\N3CCCCC3)ccnc21 |  | 47.6 |  | 6.06 |  | 11.9 |  | 5.89 |  | 32.1 |  | 36 |  | 73.3 |  | 23.1 |  | 1.1 |  | > 44
4 | Br[Se]c1ccccn1 |  | > 100 |  | 30.8 |  | 35.5 |  | 33 |  | 33 |  | 72 |  | 31.5 |  | 31 |  | 28.9 |  | 54.1
5 | COc1ccc(CN2C(=O)C(Cl)=C(Nc3cccc(C(F)(F)F)c3)C2=O)cc1 | 2.54 | 17.4 | 5.07 | 18.8 | 8.46 | 25.9 | 3.45 | 15.4 | 0.885 | 27 | 3.26 | 51.5 | 3.39 | 18 | 0.0458 | 6.01 | 4.38 | 18.5 | 3.88 | 21.5
6 | COC(=O)[C@]12CC[C@@H](C)[C@H](C)[C@@H]1C1=CC[C@@H]3[C@@]4(C)C[C@@H](O)[C@H](O)[C@@](C)(CO)[C@@H]4[C@H](O)C[C@@]3(C)[C@]1(C)CC2 | 7.77 | 36.9 | 14.8 | 31.2 | 14.6 | 31.2 | 11.1 | 26.4 | 12.9 | 27.9 | 12.7 | 45.7 | 13 | 29.8 | 9.32 | 23.1 | 15.3 | 28.9 | 7.23 | 29.1
7 | CCOc1ccc(NC2=CC(=O)C(=O)c3ccccc32)cc1 |  | 56.8 |  | 10.9 |  | 26 |  | 10.1 |  | 30.7 |  | 26.9 |  | 54.5 |  | 14.6 |  | 2.95 |  | 27.9
8 | CC(C)[C@@H]1NC(=O)[C@]2(C)CSC(=N2)c2ccnc(c2)CNC(=O)C[C@@H](/C=C/CCS)OC1=O | 0.574 | > 100 | 0.717 | 2.41 | 0.173 | 0.869 | 0.115 | 1.09 | 0.363 | 2.81 | 0.637 | > 100 | 0.472 | > 100 | 0.0828 | 0.562 | 0.0715 | 0.323 | 1.73 | 6.91
9 | O=C(Nc1nn2c(-c3cc(C(F)(F)F)cc(C(F)(F)F)c3)nnc2s1)C1CCCC1 | 0.459 | > 82.1 | 1.49 | 2.86 | 0.685 | > 100 | 0.518 | > 100 | 0.197 | 0.876 | 0.488 | > 100 | 1.12 | 4.01 | 1.62 | > 33.9 | 0.251 | 1.74 | 0.375 | > 24.6
10 | C#Cc1cccc(Nc2nc3cc([N+](=O)[O-])ccc3nc2Nc2ccc(O)cc2)c1 | 1.33 | 6.01 | 1.9 | 3.71 | 1.75 | 3.45 | 1.46 | 2.9 | 1.79 | 3.6 | 2.1 | 6.41 | 1.8 | 3.8 | 1.73 | 3.58 | 1.79 | 3.23 | 1.93 | 6.24
11 | CCCCCCCCCCSC(=N)N (tested in a mixture with another compound) | 3.65 | 17 | 1.86 | 3.78 | 1.6 | 3.05 | 2.6 | 9.55 | 2.66 | 8.83 | 1.72 | 5.88 | 1.8 | 4.22 | 2.55 | 7.23 | 2.83 | 8.55 | 1.86 | 4.95
12 | C=C(C)C(=O)O[C@@H]1C[C@@]2(C)O[C@@H]2C[C@H](O)/C(C)=C/[C@H]2OC(=O)C(=C)[C@@H]21 |  | 63.6 |  | > 100 |  | > 100 |  | > 100 |  | > 100 |  | > 100 |  | > 100 |  | > 100 |  | > 100 |  | > 100
13 | CC[C@@H](c1ccc(O)c(O)c1)[C@@H](CC)c1ccc(O)c(O)c1 | 2.88 | 9.39 | 1.97 | 4.11 | 17.4 | 33.1 | 4.23 | 14.4 | 2.02 | 6.09 | 3.38 | 94.5 | 12 | 29.1 | 2.57 | 7.59 | 13.6 | 28.9 | 2.48 | 7.96
14 | NCCNCCNCCN | > 100 | > 100 | > 100 | > 100 | > 100 | > 100 | > 100 | > 100 | > 100 | > 100 | > 100 | > 100 | > 100 | > 100 | > 100 | > 100 | > 100 | > 100 | > 100 | > 100
